According to PubChem BioAssay AID1996:
Values after ≈ are worked out from the molar mass of the structure shown.

settings: buffer; pH 7.4; 200.0 µM

Structure (SMILES) | solubility kinetic
O=C(O)CCC(CNS(=O)(=O)c1ccccc1)C(F)(F)F (stereo not given) | > 48.8 µg/mL
CN(C)c1nc(F)c(F)c(S(=O)(=O)c2ccccc2)c1F | 12.4 µg/mL (≈ 39.2 µM)
C=Cn1cc[n+](CC(=O)c2ccc(Br)cc2)c1.[Br-] | > 55.8 µg/mL
Nc1ccc(-c2nc3ccccc3o2)cc1 | 20.8 µg/mL (≈ 98.9 µM)
FC(F)(F)c1cccc(OCc2noc(-c3ccsc3)n2)c1 | < 0.3 µg/mL
CC1CCc2c(sc3ncn(CCO)c(=O)c23)C1 (stereo not given) | > 39.7 µg/mL
O=C(CN1CCN(c2ccc(F)cc2)CC1)Nc1nccs1 | 24.5 µg/mL (≈ 76.5 µM)
CCNC(=S)N1CCN(C(=O)C(Cc2ccccc2)NC(C)=O)CC1 (stereo not given) | > 54.4 µg/mL
O=C(O)Cn1c(=O)c2c3c(sc2n(Cc2ccc(F)cc2)c1=O)CCCC3 | > 58.3 µg/mL
CC(=O)/C=C/c1ccccc1Oc1c(F)c(F)nc(F)c1F | 17.8 µg/mL (≈ 57.2 µM)
Cc1noc(C)c1C(=O)OC(C)C(=O)N(C)c1ccccc1 (stereo not given) | > 45.3 µg/mL
Cc1nn(C)cc1S(=O)(=O)Nc1ncccn1 | > 38 µg/mL
O=C(Nc1ccccc1)c1ccccc1NC(=O)[C@H]1CCCC[C@H]1C(=O)O | > 55 µg/mL
O=C(OCC(=O)N1CCCC1)c1cc([N+](=O)[O-])ccc1Cl | > 46.9 µg/mL
O=[N+]([O-])c1ccc(Cl)cc1CN1CCCCCC1 | 16.7 µg/mL (≈ 62.1 µM)
CC(CCc1ccccc1)NC(=O)CSc1ccccn1 (stereo not given) | 34.6 µg/mL (≈ 115 µM)
CCOc1cc(C)c(S(=O)(=O)NCc2ccccn2)cc1C | > 48.1 µg/mL
Clc1ccccc1Nc1nc2ccccc2o1 | 2.3 µg/mL (≈ 9.4 µM)
O=C(Nc1cccc(F)c1)C1CCN(C(=O)NCc2ccccc2)CC1 | 9.2 µg/mL (≈ 25.9 µM)
O=C(c1ccc2ccccc2c1)N1CCc2ccccc21 | < 0.6 µg/mL

Structure (SMILES) | solubility kinetic
CC(=O)Nc1ccc(NC(C)=O)c(NC2OCC(O)C(O)C2O)c1 (stereo not given) | > 50.9 µg/mL
O=C(NC(=S)Nc1ccccc1F)C1CCCCC1 | 3 µg/mL (≈ 10.7 µM)
C=CCn1c(O)c(C(CC)=Nc2ccc(NC(C)=O)cc2)c(=O)[nH]c1=O | > 53.5 µg/mL
O=C(NCCc1ccccc1F)c1ccc2c(c1)OCCO2 | > 45.2 µg/mL
COc1ccc(C(=O)Nc2ccccc2C(=O)Nc2ccc(C(=O)O)cc2)cc1 | > 58.6 µg/mL
CCOC(=O)CNC(=S)N(Cc1ccccc1)Cc1cccs1 | 19.8 µg/mL (≈ 56.8 µM)
CC(C)n1cnnc1SCC(=O)Nc1cccnc1Cl | > 46.8 µg/mL
O=C1CSC(c2ccccn2)N1c1ccc(F)cc1F (stereo not given) | > 43.8 µg/mL
O=C(COC(=O)COc1ccccc1)NCc1ccco1 | > 43.4 µg/mL
COc1ccc(-c2[nH]c3ccccc3c2SCCN)cc1 | 31.9 µg/mL (≈ 107 µM)
CC1=NCCN1CCNC(=O)Nc1cc(C)cc(C)c1 | 40 µg/mL (≈ 146 µM)
O=C(CN1CCC(c2nc3ccccc3s2)CC1)N1CCCCC1 | > 51.5 µg/mL
CN(C(=O)CSc1nnnn1C)C1(C#N)CCCCC1 | > 44.2 µg/mL
O=C(CCn1c(=S)oc2ccccc21)NC1CCCCC1 | 1.6 µg/mL (≈ 5.26 µM)
COC(=O)c1ccc(/C=C/C(=O)OCC(=O)Nc2sccc2C(N)=O)cc1 | 3.9 µg/mL (≈ 10 µM)
O=C(OCc1c(F)cccc1Cl)c1cnc(Cl)c(Cl)c1 | < 0.7 µg/mL
O=C(COC(=O)C1COc2ccccc2O1)Nc1ccccc1OC(F)F (stereo not given) | > 56.9 µg/mL
COc1ccc(NC(=O)c2cc3cc(OC)ccc3oc2=O)cc1 | < 0.7 µg/mL
CCOc1ccc(OCCCC(=O)N2CCN(S(=O)(=O)c3ccccc3C#N)CC2)cc1 | 27.2 µg/mL (≈ 59.4 µM)
Nc1ccc2nc(SCc3ccccc3F)sc2c1 | 16 µg/mL (≈ 55.1 µM)

Structure (SMILES) | solubility kinetic
COC(=O)c1c(C)oc(C)c1S(=O)(=O)N1CCCCC1 | 34.8 µg/mL (≈ 115 µM)
CC(CC(=O)N1CCN(C(=O)c2ccccc2)CC1)c1ccccc1 (stereo not given) | > 50.5 µg/mL
COc1ccccc1C(=O)OCC(=O)NC1CCCC1 | > 41.6 µg/mL
CC(C)=CCN1CCN(Cc2cccc3nccnc23)CC1CCO (stereo not given) | > 51.1 µg/mL
COc1ccc(Cl)cc1NC(=O)NCCN1CCCCC1 | > 46.8 µg/mL
Cc1occc1C(=O)N1CCN(c2ccc([N+](=O)[O-])cc2)CC1 | 35.4 µg/mL (≈ 112 µM)
O=C(NCC1CCCO1)C1CC(=O)N(c2cccc(Cl)c2)C1 (stereo not given) | 46.6 µg/mL (≈ 144 µM)
O=C(Nc1nc2ccccc2n1CCN1CCOCC1)c1ccc(Cl)cc1 | 0.9 µg/mL (≈ 2.34 µM)
CCNC(=S)NNC(=O)c1ccc(S(=O)(=O)NCc2ccco2)cc1 | > 57.4 µg/mL
Cc1ccc2cc3c(nc2c1)OCC3 | > 27.8 µg/mL
CCOC(=O)c1ccc(NC(=S)N2CCN(c3ccccn3)CC2)cc1 | 1.2 µg/mL (≈ 3.24 µM)
CC1CCN(C(=O)c2ccc(CNS(=O)(=O)c3ccc(C(C)(C)C)cc3)cc2)CC1 | 8.3 µg/mL (≈ 19.4 µM)
Cc1ccc(S(=O)(=O)NCCNc2ccc([N+](=O)[O-])cc2)cc1 | 32.8 µg/mL (≈ 97.8 µM)
Cn1c(O)c(/C=N/NC(=O)c2ccncc2)c(=O)[nH]c1=S | > 45.8 µg/mL
CC1(C)C2CCC1(CS(=O)(=O)NC1CCCC1)C(=O)C2 (stereo not given) | > 44.9 µg/mL
O=C(C#Cc1ccccc1)NCc1ccccc1F | 8.1 µg/mL (≈ 32 µM)
CC(=O)N(c1ccc(Cl)cc1)c1cn(C(C)=O)c2ccccc12 | > 49 µg/mL
CC1=NOC(=O)/C1=C\c1ccccc1 | 24.4 µg/mL (≈ 130 µM)
CCCC(=O)Nc1ccc(OCC(O)CNC(C)C)c(C(C)=O)c1.Cl (stereo not given) | > 55.9 µg/mL
Cn1c(=O)n(C)c2cc(S(=O)(=O)Nc3ccccc3C(=O)O)ccc21 | > 54.2 µg/mL
